According to patent publication US20230167108A1, “CRYSTAL OF IMIDAZOPYRIDINONE COMPOUND OR SALT THEREOF” (Kissei Pharmaceutical Co., Ltd., priority 2020, published 2023):

Key:
human PHD2184-418 = molecular target: T1, human PHD2184-418 (Homo sapiens, UniProt Q9GZT9); assay: PHD2 inhibitory test (fluorescence polarization, FITC-labeled HIF-1α556-574); assay type: binding; conditions: 2 μM 2-oxoglutarate, 37° C. for 60 minutes
T1 construct: containing amino acid residues 184 to 418 of the protein represented by CAC42509; histidine tag (N); made in house; host or cells: E. coli BL21 (DE3), pET-30a (+) vector
T1 sequence (Q9GZT9 184-418): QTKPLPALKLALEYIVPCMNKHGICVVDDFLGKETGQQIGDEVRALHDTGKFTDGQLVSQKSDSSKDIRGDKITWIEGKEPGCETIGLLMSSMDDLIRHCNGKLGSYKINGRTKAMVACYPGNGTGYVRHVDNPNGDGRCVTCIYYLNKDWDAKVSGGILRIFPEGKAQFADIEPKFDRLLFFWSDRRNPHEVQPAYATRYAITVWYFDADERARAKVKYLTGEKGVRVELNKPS
Procedure: Test Example 1 PHD2 Inhibitory Test
(1) Expression and Preparation of Human […]
Human PHD2184-418 is containing amino acid residues 184 to 418 of the protein represented by CAC42509 (GenBank accession ID) was expressed and prepared by the following method.
An expression construct of human PHD2184-418 containing an N-terminal histidine tag was introduced into pET-30a (+) vector, and the sequence was confirmed. This vector was introduced into BL21 (DE3) strain and cultured at 37° C. in LB medium containing antibiotics. After culturing, a cell lysis solution was added to the cells, and then the cells were disrupted and suspended by sonication. The disrupted suspension was centrifuged, and the supernatant was purified by Ni column to give human PHD2184-418.
Human HIF-1α556-574 (FITC-labeled HIF-1α556-574), containing FITC-Ahx at the N-terminal of HIF-1α556-574 containing amino acid residues 556 to 574 (partial peptide) of human HIF-1α, was used as a substrate. Using FITC-labeled HIF-1α556-574, the competitive inhibition between 2-oxoglutarate and the test compound ([…]) was evaluated based on the change in fluorescence polarization of FITC-labeled HIF-1α556-574 by the following method.
An enzyme (human PHD2184-418) and the substrate were diluted with an assay buffer (pH 7.4) containing 10 mM HEPES, 150 mM NaCl, 10 μM MnCl2-4H2O, 2 μM 2-oxoglutarate and 0.05% Tween-20. […]

[1] = system: TNBS induced colitis model rat; assay: Therapeutic effect in colitis model (suppression of intestinal permeability of FITC); assay type: in vivo; conditions: 3 mg/kg orally once a day for 3 days, serum FITC, mean
Procedure: Test Example 2 Therapeutic Effect in Colitis Model
(1) TNBS Induced Colitis Model Rat
Thus, the suppressive effect on the intestinal permeability based on oral administration of the test compound was evaluated as an indicator of medicinal efficacy.
SD male rats: 8-week-old SIX (Japan SLC) were used, Under pentobarbital anesthesia, 300 μL of 28 mg/mL TNBS which was adjusted with 50% ethanol was administered at a point 8 cm from the anus in the large intestine to cause inflammation. To the solvent-treated group was administrated 300 μL of 50% ethanol. Animals were fasted for 48 hours prior to administration of TNBS. The test compound (3 mg/kg) prepared with 0.05% methylcellulose solution was orally administered once a day from the next day, and it was administered for a total of 3 days. After administering for 3 clays, 50 mg/kg FITC was orally administered 4 hours after the administration of the test compound. Blood samples were collected from jugular vein under isoflurane anesthesia after 4 hours. The serum was centrifuged, and fluorescence intensity was detected by PHERAstar FSX (BMG Labtech) to measure the concentration of FITC permeating into circulating blood through the mesentery. The suppressive rate on the intestinal permeability of the test compound was calculated based on the value of the test substance-free group as 0 and the value of the TNBS-untreated group as 100.

[2] = Rat PK study: concentration of compound in large intestine tissue and plasma; assay type: in vivo; conditions: 3 mg/kg oral, non-fasted SD rats
Procedure: Test Example 3 Concentration of Compound in Large Intestine Tissue
The test compound (3 mg/kg/5 mL) prepared with 0.05% methylcellulose was orally administered to non-fasted rats (SD, 8-week-old, male, T SLC). Blood samples were collected from jugular vein 0.25, 0.5, 1, 2, 4, 6 and […] hours after the administration. Laparotomy was performed under isoflurane anesthesia, and the large intestine was isolated. The collected distal large intestine (about 5 cm) was cut open, and then the large intestine extracted was washed with saline on a dish. After washing, the large intestine was minced with small scissors. About 150 mg thereof was moved to a tube. To the tube was added 100 μL of saline, and the mixture was homogenized using shake master (1000 rpm×30 minutes). Samples were prepared by the addition with quadruple volume of saline as the final volume. The concentrations of the test compound in the large intestine tissue and the plasma were measured through a quantitative analysis using liquid chromatography-mass spectrometry (LC/MS).
Cmax: maximum plasma concentration of the test compound in the case of oral administration (ng/mL) AUC: area under the plasma test compound concentration-time curve (ng*min/mL) Plasma: plasma test compound concentration after 8 hours (ng/mL) Colon: concentration of the test compound in the large intestine tissue after hours (ng/g) C/P: ratio of the above Colon and Plasma

[3] = Solid stability test (physicochemical and chemical stability of crystals); conditions: open condition at 40° C., 1 month; for Amount of the mass change of the compound 1: HPLC area normalization; for Properties: appearance; for Crystal form change: powder X-ray diffraction
Text: Test Example 4: Solid Stability Test
The physicochemical stability and chemical stability for the crystals of the compound 1 (crystal forms I to III), the crystals of the methanesulfonic acid salt of the compound 1 (crystal forms I, II and IV), the crystals of the hydrochloride (crystal forms I and III), the crystal form I of the p-toluenesulfonic acid salt, the crystal form I of the sodium salt and the crystal form I of the calcium salt were examined.
Physicochemical stability: Each crystal was stored under open condition at 40° C. The powder X-ray diffraction of the sample was measured at the initial point and 1 month later, and the change in crystal form Was confirmed. The change in properties was also observed at the same time. Chemical stability: Each crystal was stored under open condition at 40° C. The mass of the compound 1 in the sample was measured under the following HPLC measurement conditions at the initial point and 1 month later.
Detector: Ultraviolet and visible absorptiometer/wavelength: 225 nm
Column: L-column 2 ODS, 3 μm, 4.6×150 mm (Chemicals Evaluation and Research Institute)
Column temperature: Constant temperature around 40° C. Flow rate: 1.0 mL/min Mobile phase A: Potassium dihydrogenphosphate and dipotassium hydrogenphosphate aqueous solution adjusted to 10 mmol/L with water Mobile phase B: Acetonitrile Mobile phase ratios: 0 to 30 minutes: mobile phase A/mobile phase B=88/12 30 to 50 minutes: mobile phase A/mobile phase B=88/12 to 25/75 50 to 55 minutes: mobile phase A/mobile phase B=25/75 55 to 55.01 minutes: mobile phase A/mobile phase B=25/75 to 88/12 55.01 to 75 minutes: mobile phase Airmobile phase B=88/12 Amount of injection: 5 μL Sample cooler: 4° C. Dissolution solvent: Mixed solution (mobile phase A/acetonitrile=75/25) Sample solution: Sample was dissolved in dissolution solvent and adjusted to about 1 mg/mL
Excluding the peaks derived from the blank, the peak areas of the compound 1 and an analogous substance were measured by automatic integration, and the mass of the compound 1 was calculated by area normalization method. Further, the amount of the mass change of the compound 1 after the storage was calculated.

Row | IC50 (human PHD2184-418; read-out: IC50 (human PHD2 binding inhibitory activity)) [nM] | Colon: concentration of the test compound in the large intestine tissue ([2]; distal large intestine) [ng/g] | Kp ([2]; male, rat, large intestine tissue / plasma, read-out: C/P: ratio of Colon and Plasma) | concentration at 8 h ([2]; male, rat, plasma, 8 hours, read-out: Plasma: plasma test compound concentration after 8 hours) [ng/mL] | AUC ([2]; male, rat, plasma, read-out: AUC: area under the plasma test compound concentration-time curve (converted)) [ng·h/mL] | Cmax ([2]; male, rat, plasma, read-out: Cmax: maximum plasma concentration of the test compound) [ng/mL] | Amount of the mass change of the compound 1 [3] | Properties [3] | Crystal form change [3] | Compound | IC50 (human PHD2 binding inhibitory activity) (human PHD2184-418) | Inhibition (%): suppressive rate on the intestinal permeability [1] [%] | Inhibition (%): suppressive rate on the intestinal permeability ([1]; listed as compound 1) | C/P: ratio of Colon and Plasma [2]
1 | 180 | 164 | > 164 | < 1 | 1.95 | 1 | – | – | – | Cn1c(C(=O)O)cnc1CN1CC[C@H](n2c(=O)n(-c3ccc(-c4ccc(C(=O)O)cc4)nc3)c3cccnc32)C1 [Compound 1, 2-{[(3S)-3-{1-[6-(4-Carboxyphenyl)pyridin-3-yl]-2-oxo-2,3-dihydro-1H-imidazo[4,5-b]pyridin-3-yl}pyrrolidin-1-yl]methyl}-1-methyl-1H-imidazole-5-carboxylic Acid] | inhibited binding between PHD2 and HIF-1α | 101 | suppressed | higher concentration in the large intestine tissue than the concentration in the plasma
2 | – | – | – | – | – | – | No change | White powder, no change | No change | Cn1c(C(=O)O)cnc1CN1CC[C@H](n2c(=O)n(-c3ccc(-c4ccc(C(=O)O)cc4)nc3)c3cccnc32)C1 [Crystal form I of the compound 1] | – | – | – | –
3 | – | – | – | – | – | – | −0.03% | White powder, no change | No change | Cn1c(C(=O)O)cnc1CN1CC[C@H](n2c(=O)n(-c3ccc(-c4ccc(C(=O)O)cc4)nc3)c3cccnc32)C1 [Crystal form II of the compound 1] | – | – | – | –
4 | – | – | – | – | – | – | −0.04% | White powder, no change | No change | Cn1c(C(=O)O)cnc1CN1CC[C@H](n2c(=O)n(-c3ccc(-c4ccc(C(=O)O)cc4)nc3)c3cccnc32)C1 [Crystal form III of the compound 1] | – | – | – | –
